Laboratory results as given in paper PMC8070745, “FEN1 Blockade for Platinum Chemo-Sensitization and Synthetic Lethality in Epithelial Ovarian Cancers” (Cancers, 2021).

Target: T1, Recombinant human FEN1 protein (Homo sapiens, UniProt P39748)
T1 construct: made in house
Assay: fluorescence-based HTS assay for FEN1 inhibitors
Type: biochemical
Conditions: dilution series on each screening plate
Experimental: reactions containing 50 mM Tris pH 8.0, 10 mM MgCl2, 1 mM DTT and 0.01% Tween-20.
Reactions were incubated at 37 °C for 10 min. To inactivate the enzyme, an equal volume of
stop buffer (90% Formamide, 20 mM EDTA) was added and the mixture was heated at 95 °C
for 10 min. Following separation on a 15% polyacrylamide-urea denaturing gel, substrate
and product bands were visualized by a Typhoon Trio+ Variable Model Imager (Amersham
Bioscience/GE Healthcare, Piscataway, NJ), and the signals were quantified using
ImageQuant software (Molecular Dynamics, GE Healthcare).
Development of HTS assay to isolate novel FEN1 inhibitors: To facilitate the search for
novel FEN1 inhibitors, we have developed a fluorogenic donor/quencher reporter pair to
monitor generation of reaction product in real time (28) (Supplementary Figure S4A ).
Recombinant human FEN1 protein was purified from bacteria as described previously (27).
All oligodeoxynucleotides were purchased from Biosearch Technologies, Inc., (Novato, CA,
USA). The double-stranded DNA substrate containing a double flap region used in the […]
BHQ-2 quencher (which absorbs 6-TAMRA fluorescence when in close proximity) is lost,
and FEN1 activity is measured indirectly as an increase in fluorescence signal (Figure 3).
Kinetic fluorescence data were collected on ViewLux high-throughput CCD imager (Perkin […]
by absence of fluorescence. […]

T1 sequence (P39748 whole entry): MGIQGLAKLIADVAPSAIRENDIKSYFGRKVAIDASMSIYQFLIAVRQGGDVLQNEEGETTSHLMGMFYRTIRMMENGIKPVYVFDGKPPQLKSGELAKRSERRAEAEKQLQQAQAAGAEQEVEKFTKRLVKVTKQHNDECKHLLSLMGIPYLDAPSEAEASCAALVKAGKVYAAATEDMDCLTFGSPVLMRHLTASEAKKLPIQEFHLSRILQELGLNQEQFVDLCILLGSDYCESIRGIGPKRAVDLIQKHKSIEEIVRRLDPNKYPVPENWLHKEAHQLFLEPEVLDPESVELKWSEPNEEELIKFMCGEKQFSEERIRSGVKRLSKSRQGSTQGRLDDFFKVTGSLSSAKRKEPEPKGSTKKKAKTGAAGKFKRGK

Cc1csc2c1c(=O)n(O)c(=O)n2-c1ccccc1 [PTPD, 3-hydroxy-5-methyl-1-phenylthieno [2,3 d]pyrimidine-2,4(1H,3H)-dione]
inhibition pattern of control dilution series in the screen: uniform inhibition pattern
